Test results from ChEMBL document CHEMBL4828774, “Novel PRMT5 Inhibitors for Treating Cancer” (ACS Med Chem Lett, 2021).

Experiment: Cytotoxicity against human HCT116-MTAP null cells assessed as reduction in cell viability incubated for 6 days by CellTiter-Glo luminescent assay
Format: functional, cell-based
Conditions: 144 h
Compound Cc1cc2cc(C(=O)N(Cc3ccc(Br)cn3)[C@H](C)c3ncccn3)ccc2nc1N has an IC50 of 15 nM.
With Cc1cc2cc(C(=O)N(Cc3ccc(C(F)(F)F)cn3)[C@H](C)c3cccc(F)n3)ccc2nc1N the IC50 was 13 nM.
Cc1cc2cc(C(=O)N(Cc3ccc(C(F)(F)F)cn3)[C@@H]3CCCc4nccnc43)ccc2nc1N gave an IC50 of 12 nM.
For Cc1cc2cc(C(=O)N(Cc3ccc(C(F)(F)F)cn3)[C@@H]3CCCc4cn[nH]c43)ccc2nc1N, the IC50 was 10 nM.
Compound Cc1cc2cc(C(=O)N(Cc3ccc(C(F)(F)F)cn3)[C@@H]3CCOc4ccc(F)nc43)ccc2nc1N has an IC50 of 13 nM.
C[C@H](c1ncccn1)N(Cc1ccc(C(F)(F)F)nn1)C(=O)c1cnc2nc(N)c(I)cc2c1 showed an IC50 of 15 nM.
